In US20050019258A1, “Compound testing method” (priority 2003, published 2005):
Where two headings read alike, the source gives them in different places.

What was measured:
[1] = test system: patients with detrusor hyperreflexia; conditions: 13 patients positive at baseline, cited from earlier work
[2] = test system: guinea-pig bladder; assay: Ice-water test (IWT) in anaesthetised guinea-pig bladder, effect of RTX treatment; assay type: in vivo
Description: (§1) Anaesthesia was induced in female Dunkin-Hartley guinea-pigs (326-416 g) by exposure to 4% halothane in oxygen. A surgical level of anaesthesia was then obtained by administration of 1.2 g/kg i.p. urethane followed by 40 mg/kg α-chloralose via a catheterised jugular vein. Supplementary doses of urethane (0.05 g/kg i.v.) were given if required. Rectal temperature was maintained between 36.5 and 37° C. via a Harvard homeothermic blanket control unit and additional heating lamp. […] The trachea was cannulated and the animals artificially respired using an Ugo-Basile rodent ventilator. A carotid arterial blood sample (0.3 ml) was analysed for blood gases using a GEM Premier 3000 analyser and the ventilation volume adjusted, with air intake enriched with O2 if necessary, to set the level of blood PO2>70 mmHg, PCO2<40 mmHg and pH between 7.36 and 7.46.
(§2) The urinary bladder was exposed via a midline laparotomy and a double lumen catheter inserted into the lumen through an incision in the dome. The catheter was tied in place below the flanged tip of the outer tubing, followed by closure of the abdominal incision. […] The amplified EUS electromyogram (EUS EMG), the integrated EUS EMG and bladder pressure signals were recorded using Spike2 software (Cambridge Electronic Design). […]

[3] = test system: guinea-pig bladder; assay: Ice-water test (IWT) in anaesthetised guinea-pig bladder, effect of menthol; assay type: in vivo
Description: as §1, §2

[4] = test system: bladder cooling reflex; conditions: 0.5 mM menthol in patients; cited from earlier work
[5] = test system: bladder cooling reflex; conditions: 0.6 mM menthol in cats; cited from earlier work

Row | SMILES | additional patients in whom IWT became negative ([1]; at 14 days, 50 or 100 nM RTX) | number of cases with negative IWT ([1]; at 90 days post treatment, 50 or 100 nM RTX) [cases] | number of patients in whom IWT became negative ([1]; immediately after instillation of 50 or 100 nM RTX) [patients] | desensitisation of the 3° C. induced reduction in TV ([2]; 500 nM RTX infused into bladder) | difference of TV to 3° C. vs TV for 38° C. control response before RTX ([2]; 500 nM RTX, 100 min post RTX infusion, 95% C.I. −0.51, 0.20, p>0.05) | threshold volume (TV) for micturition at 3° C. following menthol treatment ([3]; 0.6 mM menthol infused into bladder, 3° C. saline infusion, TV before menthol 1.90 ml, n=4) [mL] | difference in TV at 3° C. after menthol vs before menthol ([3]; 0.6 mM menthol, 95% C.I. −1.33, −0.57, p<0.001) | effect on bladder cooling reflex (shift of threshold temperature towards higher temperatures) [4] | effect on bladder cooling reflex (shift of threshold temperature towards higher temperatures) [5]
1 | C=C(C)[C@]12C[C@@H](C)[C@@]34O[C@](Cc5ccccc5)(O[C@@H]1[C@@H]3C=C(COC(=O)Cc1ccc(O)c(OC)c1)C[C@]1(O)C(=O)C(C)=C[C@@H]41)O2 [RTX, resiniferatoxin] | 2 | 8 | 4 | Desensitisation | −0.16 | – | – | – | –
2 | CC1CCC(C(C)C)C(O)C1 (stereo not drawn) [menthol] | – | – | – | – | – | 0.95 | −0.95 | Potentiation of the bladder cooling reflex | Potentiation of the bladder cooling reflex
